Measured values: ChEMBL document CHEMBL4130462, “Natural isoflavone biochanin A as a template for the design of new and potent 3-phenylquinolone efflux inhibitors against Mycobacterium avium” (Eur J Med Chem, 2017)
In brackets after ≈: the same amount, converted by molar mass.

Assays:
Mycobacterium avium [1] = experiment: Antimycobacterial activity against Mycobacterium avium isolate MAV2 assessed as reduction in bacterial viability incubated for 3 days by MTT assay; type: organism-based; settings: 72 h
Mycobacterium avium [2] = experiment: Antimycobacterial activity against Mycobacterium avium isolate MAV4 assessed as reduction in bacterial viability incubated for 3 days by MTT assay; type: organism-based; settings: 72 h
Mycobacterium avium [3] = experiment: Antimycobacterial activity against Mycobacterium avium ATCC 25291 assessed as reduction in bacterial viability incubated for 3 days by MTT assay; type: organism-based; settings: mycobacterium avium subsp. avium atcc 25291, 72 h
Mycobacterium avium [4] = experiment: Antimycobacterial activity against Mycobacterium avium isolate MAV1 assessed as reduction in bacterial viability incubated for 3 days by MTT assay; type: organism-based; settings: in vitro, 72 h
Mycobacterium avium [5] = settings: in vivo, 72 h
Description: Antimycobacterial activity against Mycobacterium avium 104 mc'2 4 assessed as reduction in bacterial viability incubated for 3 days by MTT assay

Mycobacterium avium [6] = settings: in vivo, 72 h; remark: listed apart in the source
Description: Antimycobacterial activity against Mycobacterium avium 104 mc'2 3 assessed as reduction in bacterial viability incubated for 3 days by MTT assay

Mycobacterium avium [7] = settings: 72 h
Description: Antimycobacterial activity against Mycobacterium avium 104 assessed as reduction in bacterial viability incubated for 3 days by MTT assay

Mycobacterium avium [8] = experiment: Antimycobacterial activity against Mycobacterium avium isolate MAV3 assessed as reduction in bacterial viability incubated for 3 days by MTT assay; type: organism-based; settings: 72 h
Mycobacterium avium [9] = experiment: Inhibition of multidrug resistance efflux pump in Mycobacterium avium 104 mc'2 3 assessed as increase in EtBr accumulation by measuring relative final fluorescence at 1/4 times MIC incubated for 60 mins by real-time fluorometry relative to control
Mycobacterium avium [10] = experiment: Inhibition of multidrug resistance efflux pump in Mycobacterium avium 104 assessed as increase in EtBr accumulation by measuring relative final fluorescence at 1/4 times MIC incubated for 60 mins by real-time fluorometry relative to control
[11] = system: Mycolicibacterium smegmatis; experiment: Antimycobacterial activity against Mycobacterium smegmatis str. MC2 155 assessed as reduction in bacterial viability incubated for 3 days by MTT assay; type: organism-based; settings: 72 h
Mycobacterium avium [12] = experiment: Inhibition of multidrug resistance efflux pump in Mycobacterium avium 104 mc'2 4 assessed as increase in EtBr accumulation by measuring relative final fluorescence at 1/4 times MIC incubated for 60 mins by real-time fluorometry relative to control
[13] = system: Mycolicibacterium smegmatis MC2 155; experiment: Inhibition of multidrug resistance efflux pump in Mycobacterium smegmatis str. MC2 155 assessed as increase in EtBr accumulation by measuring relative final fluorescence at <= 1/2 times MIC incubated for 60 mins by real-time fluorometry relative to control
[14] = Cytotoxicity in human monocyte-derived macrophages assessed as reduction in cell viability incubated for 3 days by alamar blue dye based assay; set-up: species or system Macrophage cell line; settings: for CC50 at 72 h: human monocyte-derived macrophages; for MTC: macrophage cell line, 72 h

SMILES | MIC (Mycobacterium avium [1]) [µg/mL] | MIC (Mycobacterium avium [2]) [µg/mL] | MIC (Mycobacterium avium [3]) [µg/mL] | MIC (Mycobacterium avium [4]) [µg/mL] | MIC (Mycobacterium avium [5]) | MIC (Mycobacterium avium [6]) | MIC (Mycobacterium avium [7]) | MIC (Mycobacterium avium [8]) [µg/mL] | Ratio (Mycobacterium avium [9]) | Ratio (Mycobacterium avium [10]) | MIC [11] | Ratio (Mycobacterium avium [12]) | Ratio [13] | CC50 at 72 h [14] [µM] | MTC [14] [µM]
CC[C@H]1OC(=O)[C@H](C)[C@@H](O[C@H]2C[C@@](C)(OC)[C@@H](O)[C@H](C)O2)[C@H](C)[C@@H](O[C@@H]2O[C@H](C)C[C@H](N(C)C)[C@H]2O)[C@](C)(O)C[C@@H](C)CN(C)[C@H](C)[C@@H](O)[C@]1(C)O [AZITHROMYCIN] | > 512 | 256 (≈ 342 µM) | 64 (≈ 85.4 µM) | 256 (≈ 342 µM) | > 512 µg/mL | > 512 µg/mL | > 512 µg/mL | 256 (≈ 342 µM) |  |  |  |  |  |  | 
CCCOc1ccc(-c2cn(CCN3CCN(Cc4ccccc4)CC3)c3ccccc3c2=O)cc1 |  |  |  |  | 256 µg/mL (≈ 532 µM) | 256 µg/mL (≈ 532 µM) | 256 µg/mL (≈ 532 µM) |  | 2.93 | 3.19 | 64 µg/mL (≈ 133 µM) | 1.96 |  |  | 
CCCOc1ccc(-c2cn(C)c3ccccc3c2=O)cc1 |  |  |  |  |  |  |  |  |  |  | 256 µg/mL (≈ 873 µM) |  |  |  | 
CCCOc1ccc(-c2c[nH]c3ccccc3c2=O)cc1 |  |  |  |  | Nd(Insoluble) | Nd(Insoluble) | Nd(Insoluble) |  |  |  | Nd(Insoluble) |  |  |  | 
CC[n+]1c(-c2ccccc2)c2cc(N)ccc2c2ccc(N)cc21.[Br-] [HOMIDIUM BROMIDE] | 12.5 | 50 | 50 | 25 | 25 µg/mL | 25 µg/mL | 25 µg/mL | 12.5 |  |  |  |  |  |  | 
CCCOc1ccc(-c2cn(CCN3CCNCC3)c3ccccc3c2=O)cc1 |  |  |  |  | > 256 µg/mL | > 256 µg/mL | > 256 µg/mL |  |  |  | > 256 µg/mL |  | 1.42 |  | 
COc1ccc(-c2coc3cc(O)cc(O)c3c2=O)cc1 [BIOCHANIN] |  |  |  |  | > 64 µg/mL | > 64 µg/mL | > 64 µg/mL |  |  |  | > 64 µg/mL |  | 0.63 | 50.4 | 20
O=C(O)c1cn(C2CC2)c2cc(N3CCNCC3)c(F)cc2c1=O [CIPROFLOXACIN] | 8 (≈ 24.1 µM) | 32 (≈ 96.6 µM) | 32 (≈ 96.6 µM) | 2 (≈ 6.04 µM) | 16 µg/mL (≈ 48.3 µM) | 16 µg/mL (≈ 48.3 µM) | 16 µg/mL (≈ 48.3 µM) | 32 (≈ 96.6 µM) |  |  |  |  |  |  | 
CCCOc1ccc(-c2cn(CCCN(C)C)c3ccccc3c2=O)cc1 |  |  |  |  | > 256 µg/mL | > 256 µg/mL | > 256 µg/mL |  |  |  | > 256 µg/mL |  | 1.38 |  | 
COc1ccc(CCN(C)CCCC(C#N)(c2ccc(OC)c(OC)c2)C(C)C)cc1OC (stereo not given) | 400 (≈ 880 µM) | 800 (≈ 1760 µM) | 800 (≈ 1760 µM) | 400 (≈ 880 µM) | 800 µg/mL (≈ 1760 µM) | 800 µg/mL (≈ 1760 µM) | 800 µg/mL (≈ 1760 µM) | 800 (≈ 1760 µM) |  |  | 800 µg/mL (≈ 1760 µM) |  |  | 117 | 10
CC1COc2c(N3CCN(C)CC3)c(F)cc3c(=O)c(C(=O)O)cn1c23 (stereo not given) [OFLOXACIN] | 4 (≈ 11.1 µM) | 16 (≈ 44.3 µM) | 64 (≈ 177 µM) | 4 (≈ 11.1 µM) | 16 µg/mL (≈ 44.3 µM) | 16 µg/mL (≈ 44.3 µM) | 16 µg/mL (≈ 44.3 µM) | 16 (≈ 44.3 µM) |  |  |  |  |  |  | 
CC[C@H]1OC(=O)[C@H](C)[C@@H](O[C@H]2C[C@@](C)(OC)[C@@H](O)[C@H](C)O2)[C@H](C)[C@@H](O[C@@H]2O[C@H](C)C[C@H](N(C)C)[C@H]2O)[C@](C)(OC)C[C@@H](C)C(=O)[C@H](C)[C@@H](O)[C@]1(C)O [CLARITHROMYCIN] | > 1024 | 8 (≈ 10.7 µM) | 8 (≈ 10.7 µM) | 4 (≈ 5.35 µM) | > 512 µg/mL | > 512 µg/mL | 8 µg/mL (≈ 10.7 µM) | 16 (≈ 21.4 µM) |  |  |  |  |  |  | 
CC[C@H]1OC(=O)[C@H](C)[C@@H](O[C@H]2C[C@@](C)(OC)[C@@H](O)[C@H](C)O2)[C@H](C)[C@@H](O[C@@H]2O[C@H](C)C[C@H](N(C)C)[C@H]2O)[C@](C)(O)C[C@@H](C)C(=O)[C@H](C)[C@@H](O)[C@]1(C)O [ERYTHROMYCIN] | > 512 | 512 (≈ 698 µM) |  |  | > 512 µg/mL | > 512 µg/mL |  | 512 (≈ 698 µM) |  |  |  |  |  |  | 
